Data set [1] has as its system Vaccinia virus. Kind of data set: microbe, parasite or virus in culture. In kind it is cell-based. To be noted: Orthopoxvirus vaccinia, read-out: EC50 vaccinia virus.
Data set [2] is described as follows: in vitro. As to conditions: human.
The subject of data set [3] is Varicella-Zoster Virus (VZV). Kind of data set: microbe, parasite or virus in culture. In kind it is cell-based. To be noted: Human alphaherpesvirus 3, HEL.
The test system of data set [4] is Human Cytomegalovirus (HCMV). Kind of data set: microbe, parasite or virus in culture. It is filed as cell-based.
The test system of data set [5] is Vaccinia virus. Kind of data set: organism not typed. It is filed as cell-based. To be noted: HEL.
The next data set has as its system Cowpox virus (Brighton). Kind of data set: microbe, parasite or virus in culture. In kind it is cell-based. As to conditions: Cowpox virus, HEL, read-out: EC50 Cowpox virus Brighton.
The test system of the next data set is Orf virus (NZ2). Kind of data set: microbe, parasite or virus in culture. It is filed as cell-based. To be noted: Orf virus, HEL, read-out: EC50 Orf virus NZ2.
Data set [6] relates to Vaccinia virus (Western Reserve) and recombinant viruses harboring the A314T, A684V or A314T+A684V mutations. It is filed as cell-based.
The test system of data set [7] is herpes simplex virus type 1 (HSV-1). Kind of data set: microbe, parasite or virus in culture. To be noted: Human alphaherpesvirus 1, HEL, read-out: EC50 HSV-1 (Kos strain). It is filed as cell-based.
In data set [8] the test system is herpes simplex virus type 2 (HSV-2). The data set can be described thus: microbe, parasite or virus in culture. To be noted: Human alphaherpesvirus 2, HEL, read-out: EC50 HSV-2 (G strain). It is filed as cell-based.
For data set [9], the system named is primate polyomavirus (SV40). Kind of data set: microbe, parasite or virus in culture. It is filed as cell-based, simian polyomavirus SV40. To be noted: Polyomavirus sp., BSC-1, in Primates.
The test system of a further data set is murine polyomavirus. Kind of data set: microbe, parasite or virus in culture. In kind it is cell-based. To be noted: Alphapolyomavirus muris, UC1, UC1B.
Data set [10] has as its system Molluscum contagiosum virus (MCV) clinical isolates. Kind of data set: microbe, parasite or virus in culture. To be noted: Keratinocyte. In kind it is cell-based.
For data set [11], the system named is vaccinia virus (Lederle strain). Kind of data set: microbe, parasite or virus in culture. As to conditions: Orthopoxvirus vaccinia, HEL. It is filed as cell-based.
In another data set the test system is HSV-1 (Kos strain). The data set can be described thus: microbe, parasite or virus in culture. As to conditions: Human alphaherpesvirus 1, HEL. It is filed as cell-based, Herpes simplex virus type 1.
A further data set relates to HEL cells. As to conditions: human.
The next data set has as its system HSB-2 cells. As to conditions: human.
Another data set has as its system MOLT-3 cells. As to conditions: human.
Data set [12] is described as follows: in vitro. As to conditions: human, […].
A short description of data set [13]: in vitro. As to conditions: African green monkey.
Data set [14] can be described thus: in vitro. As to conditions: mouse.
A short description of data set [15]: in vitro. To be noted: human. The source holds these as a separate data set.

Structures are written as SMILES. In brackets after ≈: the same amount, converted by molar mass. Where two headings read alike, the source gives them in different places. Bounds are passed on as bounds.

Regarding `NC1=NC(=O)N(C[C@@H](CO)OCP(=O)(O)O)CN1` [5,6-dihydro derivative of HPMP-5-azaC, (S)-1-[3-Hydroxy-2-(phosphonomethoxy)propyl]-5,6-dihydro-5-azacytosine], the EC50 with Vaccinia virus [1] stood at 38 µg/mL (≈ 135 µM). The compound also showed a CC50 in the data set “in vitro [2]” of 120 µg/mL (≈ 425 µM).

As to `Nc1ccn(C[C@@H](CO)OCP(=O)(O)O)c(=O)n1` [HPMPC, (S)-1-(3-hydroxy-2-phosphonylmethoxypropyl)cytosine, reference compound], the EC50 was determined as 0.05 µg/mL (≈ 0.179 µM) in data set [3] (read-out: EC50 VZV 07/1 strain (HEL cells)); 0.2 µg/mL (≈ 0.716 µM) in data set [3] (read-out: EC50 VZV OKA strain (HEL cells)); 0.2 µg/mL (≈ 0.716 µM) in data set [4] (Human betaherpesvirus 5, AD169, HEL, read-out: EC50 HCMV AD-169 strain (HEL cells)); 0.3 µg/mL (≈ 1.07 µM) in data set [4] (Human betaherpesvirus 5, HEL, read-out: EC50 HCMV Davis strain (HEL cells)); 2.45 µg/mL (≈ 8.78 µM) in the data set on Vaccinia virus [5] (read-out: EC50 Vaccinia Virus Lister); 4.35 µg/mL (≈ 15.6 µM) in the data set on Vaccinia virus [5] (Orthopoxvirus vaccinia, read-out: EC50 Vaccinia Virus Copenhagen). The EC50 with Vaccinia virus [5] (Orthopoxvirus vaccinia, read-out: EC50 Vaccinia Virus Lederle) was found to be 2.43 µg/mL (≈ 8.7 µM); in the data set with Vaccinia virus [5] (Orthopoxvirus vaccinia, read-out: EC50 Vaccinia Virus WR) it was 5.82 µg/mL (≈ 20.8 µM); with Cowpox virus (Brighton), 8.43 µg/mL (≈ 30.2 µM); with Orf virus (NZ2), 0.2 µg/mL (≈ 0.716 µM); in [7], 0.16 µg/mL (≈ 0.573 µM); in data set [8], 0.54 µg/mL (≈ 1.93 µM). Besides, the EC50 in data set [9] (read-out: antiviral activity (EC50) SV40 PML-1 strain EK) is 5.56 µg/mL (≈ 19.9 µM); in [9] (read-out: antiviral activity (EC50) SV40 PML-2 strain DAR), 5.87 µg/mL (≈ 21 µM); in [9] (read-out: antiviral activity (EC50) SV40 strain A2895) it was 4.72 µg/mL (≈ 16.9 µM); with murine polyomavirus (read-out: antiviral activity (EC50) 2PTA2) it was 5.78 µg/mL (≈ 20.7 µM); with murine polyomavirus (read-out: antiviral activity (EC50) LID-1) it was 5.89 µg/mL (≈ 21.1 µM); with murine polyomavirus (read-out: antiviral activity (EC50) MN/RDE Toronto) it was 2.76 µg/mL (≈ 9.89 µM). The EC50 with murine polyomavirus (read-out: antiviral activity (EC50) PTA) turned out to be 6.54 µg/mL (≈ 23.4 µM); in [10] (read-out: EC50 MCV 06/02) it was 0.76 µg/mL (≈ 2.72 µM); in data set [10] (read-out: EC50 MCV 06/03) it was 0.55 µg/mL (≈ 1.97 µM); in data set [10] (read-out: EC50 MCV 06/04), 0.55 µg/mL (≈ 1.97 µM); in data set [10] (read-out: EC50 MCV 06/06), 0.6 µg/mL (≈ 2.15 µM); in [11] (2 h, read-out: EC50 Vaccinia (Lederle strain), Treatment from 2 h till end of experiment) it was 3.98 µg/mL (≈ 14.3 µM). The EC50 in data set [11] (read-out: EC50 Vaccinia (Lederle strain), Pretreatment (−16 hours)) was 5 µg/mL (≈ 17.9 µM); in [11] (read-out: EC50 Vaccinia (Lederle strain), Treatment 2-4 hours), 20 µg/mL (≈ 71.6 µM); in [11] (read-out: EC50 Vaccinia (Lederle strain), Treatment 2-6 hours), 9.06 µg/mL (≈ 32.5 µM); in data set [11] (read-out: EC50 Vaccinia (Lederle strain), Treatment 2-8 hours), 10 µg/mL (≈ 35.8 µM); with HSV-1 (Kos strain) (2 h, read-out: EC50 HSV-1 (Kos strain), Treatment from 2 h till end of experiment), 0.43 µg/mL (≈ 1.54 µM); in the data set on HSV-1 (Kos strain) (read-out: EC50 HSV-1 (Kos strain), Pretreatment (−16 hours)), 1 µg/mL (≈ 3.58 µM). Further, the EC50 in the data set with HSV-1 (Kos strain) (read-out: EC50 HSV-1 (Kos strain), Treatment 2-4 hours) was determined as 2.51 µg/mL (≈ 8.99 µM); in the data set with HSV-1 (Kos strain) (read-out: EC50 HSV-1 (Kos strain), Treatment 2-6 hours), 1.1 µg/mL (≈ 3.94 µM); in the data set on HSV-1 (Kos strain) (read-out: EC50 HSV-1 (Kos strain), Treatment 2-8 hours), 1 µg/mL (≈ 3.58 µM). The “EC50 Vaccinia virus (Western Reserve) wild-type” value in data set [6] is 3.1 µg/mL (≈ 11.1 µM). In [6], the “EC50 recombinant vaccinia virus 314 + 684” value was 39.5 µg/mL. In addition, the “EC50 recombinant vaccinia virus 684” value in [6] was 14.8 µg/mL. Also, the “EC50 recombinant vaccinia virus A314T” value in data set [6] was 22.2 µg/mL. Besides, the “Toxicity MCC (microscop)” value in the data set with HEL cells was over 79 µg/mL. Besides, the “Toxicity MCC (microscopy), HSB-2 cells” value in the data set with HSB-2 cells amounted to 19 µg/mL. The “Toxicity MCC (microscopy), MOLT-3 cells” value with MOLT-3 cells was determined as 32 µg/mL. For the same compound, the CC50 in “in vitro [12]” is 68.6 µg/mL (≈ 246 µM); in “in vitro [13]” it was 79.4 µg/mL (≈ 284 µM); in “in vitro [14]” it was 84.3 µg/mL (≈ 302 µM); in “in vitro [15]”, over 79 µg/mL.

The record behind these values is patent US8153787B2 (priority 2005, dated 2012).
